Numbered stars: 1 amine (or outer) side, 2 acyl side, 3 side chain; on linkers, the order of the positions; unused ones are H or OH. Bridge positions count the residues as written; N and C are the ends. Square brackets hold non-standard residues; d marks the D form. Peptide text beside a SMILES is read from it. * marks the point of attachment. C20 diacid = O=C(O)CCCCCCCCCCCCCCCCCCC(=O)*; γGlu = O=C(O)[C@H](CCC(=O)[*:2])N[*:1]; NMeI = CC[C@H](C)[C@H](NC)C(=O)O; Sar = CNCC(=O)O
Experiments:
[1] = target: T1, human calcitonin receptor (hCTR2) (Homo sapiens, UniProt P30988); assay: hCTR2 assay: induction of cAMP (AlphaScreen cAMP Assay kit) in COS7 cells expressing hCTR2; format: cell-based; conditions: cAMP induction in COS7 cells expressing hCTR2; average of a minimum of 3 determinations; read-out: hCTR2 EC50
T1 construct: expressed in transfected cells
T1 sequence (P30988 25-474): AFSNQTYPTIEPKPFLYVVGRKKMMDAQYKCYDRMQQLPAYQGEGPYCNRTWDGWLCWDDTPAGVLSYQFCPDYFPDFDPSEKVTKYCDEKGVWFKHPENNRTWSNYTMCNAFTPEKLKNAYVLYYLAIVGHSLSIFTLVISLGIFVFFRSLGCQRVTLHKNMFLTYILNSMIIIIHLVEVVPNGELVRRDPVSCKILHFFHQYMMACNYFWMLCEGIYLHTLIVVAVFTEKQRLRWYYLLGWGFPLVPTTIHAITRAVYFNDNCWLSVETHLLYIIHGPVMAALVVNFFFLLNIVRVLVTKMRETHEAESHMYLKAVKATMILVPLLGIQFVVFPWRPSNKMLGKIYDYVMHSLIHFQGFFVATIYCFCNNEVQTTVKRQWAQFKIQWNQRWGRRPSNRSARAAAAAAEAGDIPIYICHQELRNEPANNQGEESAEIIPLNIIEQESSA
Outline: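 Stable hCTR2 clone in RAMP-naive COS7 cells; peptides titrated in Tyrode buffer (pH 7.4) with 100 µM IBMX, 0.1% casein, 15 min at 37° C. cAMP read by AlphaScreen after lysis; EC50 and efficacy relative to pramlintide from 4PL fit.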

[2] = Solubility assessment (turbidity absorbance at 325 nm); format: physicochemical; conditions: stock 2 mg/ml diluted 1:1, ambient temperature (typically 25°C), n=1; for Solubility, Acetate buffer pH 4: 100 mM acetate buffer pH 4.0; for Solubility, Acetate buffer pH 5: 100 mM acetate buffer pH 5.0; for Solubility, Histidine buffer pH 6: 100 mM histidine buffer pH 6.0; for Solubility, Histidine buffer pH 7: 100 mM histidine buffer pH 7.0; for Solubility, Phosphate buffer pH 6: 100 mM phosphate buffer pH 6.0; for Solubility, Phosphate buffer pH 7: 100 mM phosphate buffer pH 7.0; for Solubility, Phosphate buffer pH 7.5: 100 mM phosphate buffer pH7.5
Outline: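 Peptide stock (2 mg/ml, water pH 2.5) diluted 1:1 into 100 mM acetate (pH 4.0, 5.0), histidine (pH 6.0, 7.0) or phosphate (pH 6.0–7.5) buffer; absorbance at 325 nm read at about 25°C, n=1. A325 ≤ 0.02 taken as solubility ≥ 1 mg/ml.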

EC50 [1] [nM] | Solubility, Acetate buffer pH 4 [2] | Solubility, Acetate buffer pH 5 [2] | Solubility, Histidine buffer pH 6 [2] | Solubility, Histidine buffer pH 7 [2] | Solubility, Phosphate buffer pH 6 [2] | Solubility, Phosphate buffer pH 7 [2] | Solubility, Phosphate buffer pH 7.5 [2] | SMILES
0.14 | SS (SS indicates solubility ≥ 1mg/ml) | SS (SS indicates solubility ≥ 1mg/ml) | SS (SS indicates solubility ≥ 1mg/ml) | SS (SS indicates solubility ≥ 1mg/ml) | SS (SS indicates solubility ≥ 1mg/ml) | SS (SS indicates solubility ≥ 1mg/ml) | SS (SS indicates solubility ≥ 1mg/ml) | CC[C@H](C)[C@@H](C(=O)N[C@@H](CC(C)C)C(=O)N[C@@H](CO)C(=O)N[C@@H](CO)C(=O)N[C@H](C(=O)N[C@@H](CC(N)=O)C(=O)N[C@H](C(=O)NCC(=O)N[C@@H](CO)C(=O)N[C@@H](CC(N)=O)C(=O)N[C@H](C(=O)N1CCC[C@H]1C(N)=O)[C@@H](C)O)C(C)C)[C@@H](C)O)N(C)C(=O)[C@H](C)NC(=O)CN(C)C(=O)[C@H](CC(N)=O)NC(=O)[C@H](CC(N)=O)NC(=O)[C@H](CO)NC(=O)[C@H](CO)NC(=O)[C@H](Cc1c[nH]cn1)NC(=O)[C@H](Cc1c[nH]cn1)NC(=O)[C@H](CC(C)C)NC(=O)[C@H](Cc1ccccc1)NC(=O)[C@H](CCC(=O)O)NC(=O)[C@H](C)NC(=O)[C@H](CC(C)C)NC(=O)[C@H](CCCNC(=N)N)NC(=O)[C@H](CCC(N)=O)NC(=O)[C@@H](NC(=O)[C@H](C)NC(=O)[C@@H]1CSSC[C@H](NC(=O)[C@H](CCCNC(=N)N)NC(=O)CC[C@H](NC(=O)CCCCCCCCCCCCCCCCCCC(=O)O)C(=O)O)C(=O)N[C@@H](CC(N)=O)C(=O)N[C@@H]([C@@H](C)O)C(=O)N[C@@H](C)C(=O)N[C@@H]([C@@H](C)O)C(=O)N1)[C@@H](C)O [Compound 50, [19CD]-isoGlu-RC()NTATC()ATQRLAEFLHHSSNN-Gly(Me)-A-Ile(Me)-LSSTNVGSNTP-NH2] ({C20 diacid-γGlu}-RCNTATCATQRLAEFLHHSSNN[Sar]A[NMeI]LSSTNVGSNTP-NH2; disulfide 2-7)
0.093 | II (II indicates solubility ≤ 1 mg/ml) | II (II indicates solubility ≤ 1 mg/ml) | II (II indicates solubility ≤ 1 mg/ml) | II (II indicates solubility ≤ 1 mg/ml) | II (II indicates solubility ≤ 1 mg/ml) | II (II indicates solubility ≤ 1 mg/ml) | II (II indicates solubility ≤ 1 mg/ml) | CC[C@H](C)[C@@H](C(=O)N[C@@H](CC(C)C)C(=O)N[C@@H](CO)C(=O)N[C@@H](CO)C(=O)N[C@H](C(=O)N[C@@H](CC(N)=O)C(=O)N[C@H](C(=O)NCC(=O)N[C@@H](CO)C(=O)N[C@@H](CC(N)=O)C(=O)N[C@H](C(=O)N1CCC[C@H]1C(N)=O)[C@@H](C)O)C(C)C)[C@@H](C)O)N(C)C(=O)CN(C)C(=O)[C@H](CC(N)=O)NC(=O)[C@H](CC(N)=O)NC(=O)[C@H](CO)NC(=O)[C@H](CO)NC(=O)[C@H](Cc1c[nH]cn1)NC(=O)[C@H](Cc1c[nH]cn1)NC(=O)[C@H](CC(C)C)NC(=O)[C@H](Cc1ccccc1)NC(=O)[C@H](CCC(=O)O)NC(=O)[C@H](C)NC(=O)[C@H](CC(C)C)NC(=O)[C@H](CCCNC(=N)N)NC(=O)[C@H](CCC(N)=O)NC(=O)[C@@H](NC(=O)[C@H](C)NC(=O)[C@@H]1CSSC[C@H](NC(=O)[C@H](CCCNC(=N)N)NC(=O)CC[C@H](NC(=O)CCCCCCCCCCCCCCCCCCC(=O)O)C(=O)O)C(=O)N[C@@H](CC(N)=O)C(=O)N[C@@H]([C@@H](C)O)C(=O)N[C@@H](C)C(=O)N[C@@H]([C@@H](C)O)C(=O)N1)[C@@H](C)O [Compound 51, [19CD]-isoGlu-RC()NTATC()ATQRLAEFLHHSSNN-Gly(Me)-Ile(Me)-LSSTNVGSNTP-NH2] ({C20 diacid-γGlu}-RCNTATCATQRLAEFLHHSSNN[Sar][NMeI]LSSTNVGSNTP-NH2; disulfide 2-7)
0.076 | SS (SS indicates solubility ≥ 1mg/ml) | SS (SS indicates solubility ≥ 1mg/ml) | SS (SS indicates solubility ≥ 1mg/ml) | SS (SS indicates solubility ≥ 1mg/ml) | SS (SS indicates solubility ≥ 1mg/ml) | SS (SS indicates solubility ≥ 1mg/ml) | SS (SS indicates solubility ≥ 1mg/ml) | CC[C@H](C)[C@@H](C(=O)N[C@@H](CC(C)C)C(=O)N[C@@H](CO)C(=O)N[C@@H](CO)C(=O)N[C@H](C(=O)N[C@@H](CC(N)=O)C(=O)N[C@H](C(=O)NCC(=O)N[C@@H](CO)C(=O)N[C@@H](CC(N)=O)C(=O)N[C@H](C(=O)N1CCC[C@H]1C(N)=O)[C@@H](C)O)C(C)C)[C@@H](C)O)N(C)C(=O)[C@H](C)NC(=O)CN(C)C(=O)[C@H](Cc1ccccc1)NC(=O)[C@H](CO)NC(=O)[C@H](CO)NC(=O)[C@H](Cc1c[nH]cn1)NC(=O)[C@H](Cc1c[nH]cn1)NC(=O)[C@H](CC(C)C)NC(=O)[C@H](Cc1ccccc1)NC(=O)[C@H](CCC(=O)O)NC(=O)[C@H](C)NC(=O)[C@H](CC(C)C)NC(=O)[C@H](CCCNC(=N)N)NC(=O)[C@H](CCC(N)=O)NC(=O)[C@@H](NC(=O)[C@H](C)NC(=O)[C@@H]1CSSC[C@H](NC(=O)[C@H](CCCNC(=N)N)NC(=O)CC[C@H](NC(=O)CCCCCCCCCCCCCCCCCCC(=O)O)C(=O)O)C(=O)N[C@@H](CC(N)=O)C(=O)N[C@@H]([C@@H](C)O)C(=O)N[C@@H](C)C(=O)N[C@@H]([C@@H](C)O)C(=O)N1)[C@@H](C)O [Compound 52, [19CD]-isoGlu-RC()NTATC()ATQRLAEFLHHSSF-Gly(Me)-A-Ile(Me)-LSSTNVGSNTP-NH2] ({C20 diacid-γGlu}-RCNTATCATQRLAEFLHHSSF[Sar]A[NMeI]LSSTNVGSNTP-NH2; disulfide 2-7)
0.12 | SS (SS indicates solubility ≥ 1mg/ml) | SS (SS indicates solubility ≥ 1mg/ml) | SS (SS indicates solubility ≥ 1mg/ml) | SS (SS indicates solubility ≥ 1mg/ml) | SS (SS indicates solubility ≥ 1mg/ml) | SS (SS indicates solubility ≥ 1mg/ml) | SS (SS indicates solubility ≥ 1mg/ml) | CC[C@H](C)[C@@H](C(=O)N[C@@H](CC(C)C)C(=O)N[C@@H](CO)C(=O)N[C@@H](CO)C(=O)N[C@H](C(=O)N[C@@H](CC(N)=O)C(=O)N[C@H](C(=O)NCC(=O)N[C@@H](CO)C(=O)N[C@@H](CC(N)=O)C(=O)N[C@H](C(=O)N1CCC[C@H]1C(N)=O)[C@@H](C)O)C(C)C)[C@@H](C)O)N(C)C(=O)CN(C)C(=O)[C@H](Cc1ccccc1)NC(=O)[C@H](CO)NC(=O)[C@H](CO)NC(=O)[C@H](Cc1c[nH]cn1)NC(=O)[C@H](Cc1c[nH]cn1)NC(=O)[C@H](CC(C)C)NC(=O)[C@H](Cc1ccccc1)NC(=O)[C@H](CCC(=O)O)NC(=O)[C@H](C)NC(=O)[C@H](CC(C)C)NC(=O)[C@H](CCCNC(=N)N)NC(=O)[C@H](CCC(N)=O)NC(=O)[C@@H](NC(=O)[C@H](C)NC(=O)[C@@H]1CSSC[C@H](NC(=O)[C@H](CCCNC(=N)N)NC(=O)CC[C@H](NC(=O)CCCCCCCCCCCCCCCCCCC(=O)O)C(=O)O)C(=O)N[C@@H](CC(N)=O)C(=O)N[C@@H]([C@@H](C)O)C(=O)N[C@@H](C)C(=O)N[C@@H]([C@@H](C)O)C(=O)N1)[C@@H](C)O [Compound 53, [19CD]-isoGlu-RC()NTATC()ATQRLAEFLHHSSF-Gly(Me)-Ile(Me)-LSSTNVGSNTP-NH2] ({C20 diacid-γGlu}-RCNTATCATQRLAEFLHHSSF[Sar][NMeI]LSSTNVGSNTP-NH2; disulfide 2-7)

Reference: patent publication EP3046573B1, “AMYLIN ANALOGUES” (Zealand Pharma A/S, priority 2013, dated 2015)
